Results reported in patent US20110039946A1, “METHOD OF IMPROVING ATOPIC DERMATOLOGICAL DISEASES, IN WHICH A COMPOSITION COMPRISING MAGNOLOL, HONOKIOL OR A COMBINATION THEREOF IS ADMINISTERED TO A PATIENT WITH ATOPIC DERMATOLOGICAL DISEASES” (BIOSPECTRUM, INC., priority 2007, published 2011).
Where two headings read alike, the source gives them in different places.

What was measured:
[1] = system: Staphylococcus aureus; assay: filter-paper disk agar diffusion (Kirby-Bauer) antibacterial activity; format: cell-based; conditions: S. aureus; for Diameter of clear zone: filter disk 10 mm
Procedure: The standardized filter-paper disk agar diffusion method was used to determine the antibacterial activity of magnolol and honokiol against Staphylococcus aureus. This method was also well-known as Kirby-Bauer method, and has been widely used to determine the antibacterial activity (see, European Journal of Pharmacology, Junho Park et al, 2004, 496(1-3), 189-195). Briefly, Staphylococcus aureus cells were incubated with brain heart infusion (BHI) broth at 37° C. under anaerobic conditions until they reach the stationary phase. Approximately 1×10^6 bacteria cells were mixed with 7 ml of BHI agar medium containing 0.8% phytoagar and then, poured on the agar plate containing 1.5% phytoagar. The filter-paper discs (10 mm diameter) were treated with magnolol and honokiol at respective test concentrations, and then placed on the BHI agar plate inoculated with the test bacteria. The plate was incubated at 37° C. for 24 hours under anaerobic conditions, and then the antibacterial activity was determined by measuring the size of clear zone (growth inhibition halo) around the disk. The size of clear zone has the functional relation with the logarithmic value of magnolol or honokiol concentration, from which the standard calibration curve could be derived (FIG. 1). The unknown concentration of the test sample can be determined from this standard calibration curve. […] The antibacterial activity was remarkable at 6.25 μg/disk (0.39 mM) for honokiol and 12.5 μg/disk (0.78 mM) for magnolol (Table 1).

[2] = system: Staphylococcus aureus; assay: Minimum Bacteriocidal Concentration / kinetics of bacterial killing; format: cell-based
Procedure: The inhibition of bacterial growth with a certain substance is the result obtained by inhibiting the proliferation of respective cells or killing the cells. […] The following experiment was conducted to determine the Minimum Bacteriocidal Concentration (MBC). First, the same procedures as the determination of MIC were conducted in the liquid culture medium, and then a portion of the culture medium in the test tube in which no proliferation was shown was taken, diluted to remove magnolol and honokiol therefrom, and then incubated on the solid culture medium and observed for the colony formation after 24 hours. At this time, MBC means the minimum value of magnolol or honokiol concentration in the original culture solution in the plate medium on which no colony was produced. To determine MBC of magnolol and honokiol Staphylococcus aureus was used, and magnolol or honokiol was applied at the concentration one, five and 10 times as high as MIC concentration thereof to determine the kinetics of bacterial killing. The survival rate of microbes was determined within 2 hours.

[3] = system: patients suffering from mild or moderate atopic dermatitis; assay: clinical evaluation of skin topical preparations in atopic dermatitis (EASI, pruritus); format: in vivo, human; conditions: applied as 1% cream; 2 and 4 weeks
Procedure: The cosmetic compositions for atopy containing magnolol, honokiol and pimecrolimus, respectively were prepared with the contents of components as listed in the following Table 3, according to the conventional method. In the following Table 3, the control group is for the skin topical preparation with no antibacterial and anti-inflammatory substance, and the test groups 1, 2 and 3 are for the cosmetic compositions for skin topical use to treat atopy containing magnolol, honokiol and pimecrolimus, respectively.
To prepare the skin topical preparation purified water, glycerin and butylene glycol were mixed and dissolved at 70° C. (aqueous part), and the remaining components except for the three components and trimethanolamine were dissolved at 70° C. (oil part). The oil part was added to the aqueous part and stirred with a homomixer (from Tokushu Kika Kogyo, Co., Ltd. In Japan) to induce the first emulsification to which trimethanolamine was finally added. […]
1) The symptoms and extent of atopic dermatitis were objectively determined using EASI (Eczema Area Severity Index) as follows, before treatment and 2 and 4 weeks after treatment. […]
EASI score and pruritus score were compared and evaluated by applying Kruskall-Wallis one-way ANOVA method as the basic statistical method before treatment and 2 and 4 weeks after treatment. […]

[4] = system: TNF-alpha; assay: TNF-alpha production induced by heat-inactivated Staphylococcus aureus in THP-1 cells (ELISA); format: cell-based, human; conditions: heat-inactivated S. aureus 100 μg/ml, 48 hours
Procedure: In addition, the experiment was conducted to identify the synergistic anti-inflammatory effect when magnolol and honokiol are combined in a certain ratio. The efficacy to inhibit the production of TNF-alpha was examined in cases where the combined ratio of magnolol and honokiol is 1 (7.5 μM):1 (7.5 μM), 1 (5 μM):2 (10 μM), and 2(10 μM):1 (5 μM) or in case of treating with 15 μM of magnolol alone or 15 μM of honokiol alone.

[5] = system: Staphylococcus aureus; assay: Minimum Inhibitory Concentration, two-fold serial dilution; format: cell-based; conditions: 24 h, read-out: MIC of agents
Procedure: The test was conducted to determine the Minimum Inhibitory Concentrations (MIC) of magnolol and honokiol. Staphylococcus aureus incubated for 24 hours was introduced into 3 ml of brain heart infusion broth, and at the same time, magnolol and honokiol were respectively added thereto, and then incubated for 24 hours at 37° C. under anaerobic conditions. To determine MICs of honokiol and magnolol the two-fold serial dilution method was used. As used herein, MIC is defined as the minimum concentration at which the growth of microorganism is inhibited. As presented in Table 2, it could be confirmed that MICs of magnolol and honokiol for Staphylococcus aureus were 6 μg/ml and 2 μg/ml, respectively. That is, it can be seen that the antibacterial activity of honokiol is higher than that of magnolol.

[6] = system: interleukin-8; assay: interleukin-8 production induced by heat-inactivated Staphylococcus aureus in THP-1 cells (ELISA); format: cell-based, human; conditions: heat-inactivated S. aureus 100 μg/ml, 48 hours
Procedure: In general, the inflammatory response generated by bacteria or bacterial components is mediated by proinflammatory cytokines. To determine whether magnolol or honokiol can inhibit the inflammatory response generated by Staphylococcus aureus ELISA for interleukin-8 and TNF-alpha was conducted. For this purpose, THP-1 cell line as human monocyte cell line was used. 1×10^6 THP-1 cells were incubated for 14 hours under serum-free conditions, and then treated with heat-inactivated Staphylococcus aureus 100 μg/ml alone or simultaneously with magnolol and honokiol, respectively, which was then incubated for 48 hours. The amounts of interleukin-8 and TNF-alpha secreted into cell culture medium were measured by means of ELISA kit (Genzyme, Minneapolis, Minn.).

SMILES | Diameter of clear zone ([1]; 6.25 mg/disk (footnote a)) | Diameter of clear zone ([1]; 12.5 mg/disk (footnote a)) | Diameter of clear zone ([1]; 25 mg/disk (footnote a)) | Diameter of clear zone ([1]; 50 mg/disk (footnote a)) | concentration at which Staphylococcus aureus was completely exterminated within 10 minutes [2] | concentration at which Staphylococcus aureus was completely exterminated within 10 minutes ([2]; printed in brackets after μg/ml) | pruritus accompanied by atopic dermatitis (visual analog scale) [3] | production of TNF-alpha induced by Staphylococcus aureus [4] | MIC [5] | amount at which the antibacterial activity was remarkable ([1]; disk diffusion) | concentration at which the antibacterial activity was remarkable ([1]; disk diffusion, printed in brackets after μg/disk) | production of interleukin-8 induced by Staphylococcus aureus [6]
CC[C@H]1OC(=O)[C@H](C)[C@@H](O[C@H]2C[C@@](C)(OC)[C@@H](O)[C@H](C)O2)[C@H](C)[C@@H](O[C@@H]2O[C@H](C)C[C@H](N(C)C)[C@H]2O)[C@](C)(O)C[C@@H](C)C(=O)[C@H](C)[C@@H](O)[C@]1(C)O [Erythromycin, reference compound] | 35 ± 2.2^c mm | 42 ± 3.8^c mm | 45 ± 2.5^c mm | 48 ± 5^c mm | – | – | – | – | – | – | – | –
C=CCc1ccc(O)c(-c2cc(CC=C)ccc2O)c1 [Magnolol, 5,5′-di-2-propenyl-1,1′-biphenyl-2,2′-diol] | – | 11 ± 0.4^c mm | 15 ± 0.2^c mm | 18 ± 0.2^c mm | 45 µg/mL | 169.2 µM | significantly improved | reduced | 6 µg/mL | 12.5 μg/disk | 0.78 mM | reduced
